Reference: paper PMC11191095, “QSAR Reveals Decreased Lipophilicity of Polar Residues Determines the Selectivity of Antimicrobial Peptide Activity” (ACS Omega, 2024)
Where a SMILES comes first, the peptide text is derived from it.

Legend:
S. aureus (MRSA) 1199B = assay: microbe, parasite or virus in culture; format: cell-based, Staphylococcus aureus; conditions: S. aureus (MRSA) 1199B (R)
Summary of the method: (§1)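 Peptides 128→2 μg/mL, 2-fold series; inoculum ~5 × 10^5 CFU/mL from overnight culture (OD600 0.01, mixed 1:1). MHB non-cation-adjusted for bacteria, RPMI 1640 + 2% glucose for fungi. 37 °C, 20 h, OD600. MIC50/MIC90 at 50%/90% inhibition; n ≥ 3.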

human erythrocytes = assay: In vitro hemolytic activity; format: cell-based; conditions: 1 h
Summary of the method: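 Serial peptide dilutions in PBS mixed 1:1 with fresh erythrocytes, 1 h at 37 °C; supernatant OD550 measured after centrifugation. Hemolysis normalized to 0.1% Triton X-100 (full lysis) and PBS (none); HC10 and HC50 taken from dose–response curves.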

HaCat cell line = assay: In vitro HaCat cytotoxicity (MTT); format: cell-based, human; conditions: 21 h exposure, OD570, relative to untreated control
Summary of the method: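 HaCat keratinocytes were first screened with peptide at 256 μg/mL for 21 h at 37 °C, and a dose-response was run only when cytotoxicity reached p < 0.0001. Viability was read by MTT (3 h, OD570) relative to untreated control, and LC50 was taken from the dose-response curves.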

[1] = RP-HPLC ElutionTime as indicator of hydrophobicity; format: physicochemical; conditions: indicator of overall hydrophobicity; semipreparative RP-HPLC, Waters SymmetryPrep C8, water/ACN gradient with 0.1% TFA, 8 mL/min, 25 °C, 254 nm
Description: Crude peptides, made up to 10 mg/mL in 0.1% TFA (v/v) in ddH2O, were subjected to preparative RP-HPLC purification on an Agilent 1100 system, with elution in gradient. A gradient program at a flow rate of 8 mL/min and column temperature of 25 °C was used to achieve elution with solvent A (0.1% trifluoroacetic acid (TFA) in water (v/v)) and solvent B (0.1% TFA in 100% acetonitrile (ACN) (v/v)). The elution program was as follows: (1) At 0–73 min, 100% solvent A to 0% solvent B; (2) at 73–77 min, 40% solvent A to 60% solvent B; (3) at 77–93 min, 10% solvent A to 90% solvent B; (4) at 93–105 min, 100% solvent A to 0% solvent B. Data collected were the retention time of the major fraction for each peptide in minutes as RP-HPLC ElutionTime (ElutionTime). Absorbance was detected at 254 nm, and fractions were collected manually. The fractions collected were spun in a speed-vac to remove ACN and the contents lyophilized. After freeze-drying for 24 h the peptides were dissolved in 10% (v/v) acetic acid before being lyophilized for a second time and then stored at −20 °C.
Molecular descriptors used in the QSAR analysis included: charge, sequence length, overall lipophilicity (L), lipophilicity contributed by the polar or nonpolar residues (LP and LN), summation of the side chain surface areas of the total peptide, polar or nonpolar residues (SCSA, SCSAP, and SCSAN), the molecular weight of the entire peptide, polar or nonpolar residues (Mw, MwP, and MwN), count of small lipophilic residues (CSL) or aromatic residues (CAR), the total number of hydrogen bond donor and acceptor centers (HBtot, HBdon, and HBacc), the total number of rotatable bonds (#RotBonds) and various amphipathicity descriptors (LP/L, LP/LN, L/LN, Q/L, Q/LN, SCSAP/SCSAN, MwP/MwN, Q/CSL, and Q/CAR) (Suppl. Table S1). Experimentally determined characteristics included ElutionTime as an indicator of overall peptide hydrophobicity and the CD structure of each peptide determined in POPG/POPE lipids representing Gram-negative membranes, POPG lipids for Gram-positive membranes, and SDS micelles for fungal membranes. AMPs with an α-helical structure were labeled 4, β-sheets were labeled 3, β-turns and mixed conformations were labeled 2, and disordered structures were labeled 1.

P. aeruginosa PAO1 = assay: microbe, parasite or virus in culture; format: cell-based, Pseudomonas aeruginosa; conditions: P. aeruginosa PAO1 (S)
Summary of the method: as §1

[2] = MHB, 37 °C, 20 h, OD600, min. three biological repeats
[3] = human erythrocytes in PBS, 37 °C, OD550, from dose response curves

Compound	Modal MIC (S. aureus (MRSA) 1199B; [2]) [mg/L]	Modal MIC (S. aureus (MRSA) 1199B; shown in µM) [µM]	HC10 (concentration causing 10% hemolysis) (human erythrocytes; [3]) [µg/mL]	HC50 (concentration causing 50% hemolysis) (human erythrocytes; [3]) [µg/mL]	% hemolysis (human erythrocytes; red cells of human, 256 μg/mL) [%]	% HaCat cell death at initial screening (256μg/mL) ± SD (HaCat cell line) [%]	ElutionTime (RP-HPLC retention time of major fraction) [1] [min]	Modal MIC (P. aeruginosa PAO1; [2]) [mg/L]	Modal MIC (P. aeruginosa PAO1; shown in µM) [µM]
CC(C)[C@H](NC(=O)CNC(=O)[C@H](CCCNC(=N)N)NC(=O)[C@H](CCCNC(=N)N)NC(=O)[C@H](CS)NC(=O)[C@@H](NC(=O)[C@H](CS)NC(=O)[C@@H](N)CCCNC(=N)N)C(C)C)C(=O)N[C@@H](CS)C(=O)N[C@@H](CCCNC(=N)N)C(=O)N[C@@H](CS)C(=O)N[C@H](C(=O)N[C@@H](CS)C(=O)N[C@@H](CCCNC(=N)N)C(=O)N[C@@H](CCCNC(=N)N)C(N)=O)C(C)C [BTD15a] (H-RCVCRRGVCRCVCRR-NH2; N-terminus assumed)	8	4.4	9	33	100	20	20	–	–
CC[C@H](C)[C@H](NC(=O)[C@H](CCCCN)NC(=O)[C@H](CC(C)C)NC(=O)[C@H](C)NC(=O)[C@H](C)NC(=O)[C@H](CCCCN)NC(=O)[C@H](CC(C)C)NC(=O)[C@H](C)NC(=O)[C@@H](N)CCCCN)C(=O)NCC(N)=O [CPF-P3-10a] (H-KALKAALKIG-NH2)	> 128	> 122	–	–	–	–	–	> 128	> 122
CC[C@H](C)[C@H](NC(=O)[C@H](CCCCN)NC(=O)[C@H](CC(C)C)NC(=O)[C@H](C)NC(=O)[C@H](C)NC(=O)[C@H](CCCCN)NC(=O)[C@H](CC(C)C)NC(=O)[C@H](C)NC(=O)[C@@H](N)CCCCN)C(=O)NCC(=O)N[C@@H](C)C(=O)N[C@@H](CC(N)=O)C(N)=O [CPF-P3-12a] (H-KALKAALKIGAN-NH2)	> 128	> 103.8	–	–	–	–	–	> 128	> 103.8
CC[C@H](C)[C@H](NC(=O)CNC(=O)[C@@H](N)CCCNC(=N)N)C(=O)N[C@@H](CCCNC(=N)N)C(=O)NCC(=O)N[C@@H](Cc1ccc(O)cc1)C(=O)N[C@@H](CCCCN)C(=O)NCC(=O)NCC(=O)N[C@@H](Cc1ccc(O)cc1)C(=O)N[C@@H](CS)C(=O)N[C@H](C(=O)NCC(=O)N[C@@H](CCCNC(=N)N)C(=O)N[C@@H](Cc1ccccc1)C(=O)N[C@@H](CCCCN)C(=O)N[C@@H](CCC(N)=O)C(=O)N[C@H](C(=O)N[C@@H](CS)C(=O)N[C@@H](CCCCN)C(=O)N[C@@H](CS)C(=O)N[C@@H](Cc1ccc(O)cc1)C(=O)O)[C@@H](C)O)[C@@H](C)O [OmDefB] (H-RGIRGYKGGYCTGRFKQTCKCY-OH; N-terminus and C-terminus assumed)	> 128	> 49.9	–	–	–	–	25	> 128	> 49.9
CC[C@H](C)[C@H](NC(=O)[C@@H](N)Cc1c[nH]c2ccccc12)C(=O)N[C@@H](CCCCN)C(=O)N[C@@H](CO)C(=O)N[C@H](C(=O)N[C@@H](C)C(=O)N[C@@H](CCCCN)C(=O)N[C@@H](CCCCN)C(N)=O)[C@@H](C)O [Opis8a] (H-WIKSTAKK-NH2)	> 128	> 133.2	–	–	–	–	–	> 128	> 133.2
CC[C@H](C)[C@H](N)C(=O)N[C@@H](CCCNC(=N)N)C(=O)NCC(=O)N[C@@H](Cc1ccc(O)cc1)C(=O)N[C@@H](CCCCN)C(=O)NCC(=O)NCC(=O)N[C@@H](Cc1ccc(O)cc1)C(=O)N[C@@H](CS)C(=O)N[C@@H](CCCCN)C(N)=O [Os(3-12)a] (H-IRGYKGGYCK-NH2)	> 128	> 112	–	–	–	–	–	> 128	> 112
